Measurements from patent US5869489A, “Trypthophan ureas as neurokinnin antagonists” (Merck & Co., Inc., priority 1997, dated 1999).

Key:
[1] = target: T1, human NK1R (Homo sapiens, UniProt P25103); test: Binding assay of human NK1R expressed in COS or CHO cells, displacement of 125I-substance P (Table 1, hNK1); details: human NK1 receptor, 125I-substance P ligand; read-out: hNK1 (IC50 nM)
T1 construct: expressed in transfected cells
Procedure: (§1) A. Receptor Expression in COS
(§2) To express the cloned human neurokinin-1 receptor (NK 1R) transiently in COS, the cDNA for the human NK 1R was cloned into the expression vector pCDM9 which was derived from pCDM 8 (INVITROGEN) by inserting the ampicillin resistance gene (nucleotide 1973 to 2964 from BLUESCRIPT SK+) into the Sac II site. Transfection of 20 μg of the plasmid DNA into 10 million COS cells was achieved by electroporation in 800 μl of transfection buffer (135 mM NaCl, 1.2 mM CaCl2, 1.2 mM MgCl2, 2.4 mM K2 HPO4, 0.6 mM KH2 PO4, 10 mM glucose, 10 mM HEPES pH 7.4) at 260 V and 950 uF using the IBI GENEZAPPER (IBI, New Haven, Conn.). The cells were incubated in 10% fetal calf serum, 2 mM glutamine, 100 U/ml penicillin-streptomycin, and 90% DMEM media (GIBCO, Grand Island, N.Y.) in 5% CO2 at 37° C. for three days before the binding assay. Similar methods were used to express the NK2 receptor.
(§3) B. Stable Expression in CHO
(§4) To establish a stable cell line expressing the cloned human NK1R, the cDNA was subcloned into the vector pRcCMV (INVITROGEN). Transfection of 20 μg of the plasmid DNA into CHO cells was achieved by electroporation in 800 μl of transfection buffer suplemented with 0.625 mg/ml Herring sperm DNA at 300 V and 950 uF using the IBI GENEZAPPER (IBI). The transfected cells were incubated in CHO media (10% fetal calf serum, 100 U/ml pennicilin-streptomycin, 2 mM glutamine, 1/500 hypoxanthine-thymidine(ATCC), 90% IMDM media (JRH BIOSCIENCES, Lenexa, Kans.), 0.7 mg/ml G418 (GIBCO)) in 5% CO2 at 37° C. until colonies were visible. Each colony was separated and propagated. The cell clone with the highest number of human NK1R was selected for subsequent applications such as drug screening. Similar methods were used to express the human NK2 receptor.
(§5) C. Assay Protocol using COS or CHO The binding assay of human NK1R expressed in either COS or CHO cells is based on the use of ^125 I-substance P (^125 I-SP, from DU PONT, Boston, Mass.) as a radioactively labeled ligand which competes with unlabeled substance P or any other ligand for binding to the human NK1R. […] In the binding assay, 500 μl of cells were added to a tube containing 20 μl of 1.5 to 0.25 nM of ^125 I-SP and 5 μl of unlabeled substance P or any other test compound in DMSO. The tubes were incubated at 4° C. or at room temperature for 1 hour with gentle shaking. The bound radioactivity was separated from unbound radioactivity by GF/C filter (BRANDEL, Gaithersburg, Md.) which was pre-wetted with 0.1% polyethylenimine. The filter was washed with 3 ml of wash buffer (50 mM Tris pH 7.5, 5 mM MnCl2, 150 mM NaCl) three times and its radioactivity was determined by gamma counter. A similar assay was used for NK2 except ^125 I-NKA was used as the ligand.

[2] = target: T2, human NK2 receptor (Homo sapiens, UniProt P21452); test: Binding assay of NK2 receptor expressed in COS or CHO cells, displacement of 125I-NKA (Table 1, hNK2); details: human NK2 receptor, 125I-NKA ligand; read-out: hNK2 (IC50 nM)
T2 construct: expressed in transfected cells
T2 sequence (P21452 1-398): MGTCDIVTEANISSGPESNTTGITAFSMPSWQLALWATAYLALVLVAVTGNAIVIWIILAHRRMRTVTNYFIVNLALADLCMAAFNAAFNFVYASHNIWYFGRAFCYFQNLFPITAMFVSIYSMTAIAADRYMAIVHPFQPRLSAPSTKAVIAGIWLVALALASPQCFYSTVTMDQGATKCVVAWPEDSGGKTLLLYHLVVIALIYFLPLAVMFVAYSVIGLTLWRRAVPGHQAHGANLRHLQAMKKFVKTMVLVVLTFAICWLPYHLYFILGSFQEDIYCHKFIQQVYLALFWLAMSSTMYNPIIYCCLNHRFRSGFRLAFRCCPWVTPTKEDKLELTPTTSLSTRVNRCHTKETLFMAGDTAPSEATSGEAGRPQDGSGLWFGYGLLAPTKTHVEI
Procedure: as §1, §2, §3, §4, §5

T1 sequence (P25103 whole entry): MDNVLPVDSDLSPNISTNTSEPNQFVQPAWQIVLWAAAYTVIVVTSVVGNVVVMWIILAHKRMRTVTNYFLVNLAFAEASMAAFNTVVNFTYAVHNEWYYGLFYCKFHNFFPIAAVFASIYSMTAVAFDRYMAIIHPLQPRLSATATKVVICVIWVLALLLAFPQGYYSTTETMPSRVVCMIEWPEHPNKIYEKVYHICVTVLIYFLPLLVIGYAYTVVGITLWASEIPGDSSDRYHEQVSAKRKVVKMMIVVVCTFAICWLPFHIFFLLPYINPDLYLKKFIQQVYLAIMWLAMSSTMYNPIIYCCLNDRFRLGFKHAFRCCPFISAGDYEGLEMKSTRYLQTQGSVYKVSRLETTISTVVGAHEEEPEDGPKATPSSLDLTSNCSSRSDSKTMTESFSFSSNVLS

Compound	IC50 [1] [nM]	IC50 [2] [nM]
CN(Cc1ccccc1)C(=O)[C@@H](Cc1c[nH]c2ccccc12)NC(=O)N1CCC(c2ccccc2)CC1 [Example 33]	750	250
CC(=O)N1CC2(CCN(C(=O)N[C@@H](Cc3c[nH]c4ccccc34)C(=O)N(C)Cc3ccccc3)CC2)c2ccccc21 [Example 6, N-Benzyl-N-methyl-2-(S)-((1-acetylspiroindoline-3,4'-piperidino)-carbonyl-amino)-3-(3-indolyl)propionamide]	15	30
CN(Cc1ccccc1)C(=O)[C@H](Cc1c[nH]c2ccccc12)NC(=O)N1CCC2(CC1)CN(S(C)(=O)=O)c1ccccc12 [Example 5, N-Benzyl-N-methyl-2-(S)-((1-methanesulfonyl-spiroindoline-3,4'-piperidino)-carbonyl-amino)-3-(3-indolyl)propionamide]	20	12
CC(=O)NC1(c2ccccc2)CCN(C(=O)N[C@@H](Cc2c[nH]c3ccccc23)C(=O)N(C)Cc2ccccc2)CC1 [Example 9, N-Benzyl-N-methyl-2-(S)-(((4-phenyl-4-acetylamino)piperidino)-carbonyl-amino)-3-(3-indolyl)propionamide]	60	> 100
CN(Cc1cccc(C(F)(F)F)c1)C(=O)[C@H](Cc1c[nH]c2ccccc12)NC(=O)N1CCC2(CC1)CN(S(C)(=O)=O)c1ccccc12 [Example 26, N-(3-Trifluoromethylphenyl)methyl-N-methyl-2-(S)-((1-methanesulfonyl-spiroindoline-3,4'-piperidino)-carbonyl-amino)-3-(3-indolyl)propionamide]	7.5	127
O=C(NCc1ccccc1)[C@H](Cc1c[nH]c2ccccc12)NC(=O)N1CCC2(CCc3ccccc32)CC1 [Example 15, N-Benzyl-2-(S)-((spiroindane-1,4'-piperidino)-carbonyl-amino)-3-(3-indolyl)propionamide]	100	35
Cc1cc(Cl)cc(CN(C)C(=O)[C@H](Cc2c[nH]c3ccccc23)NC(=O)N2CCC3(CC2)CN(S(C)(=O)=O)c2ccccc23)c1 [Example 29, N-((3-Chloro-5-methyl)phenyl)methyl-N-methyl-2-(S)-((1-methanesulfonyl-Spiroindoline-3,4'-piperidino)-carbonyl-amino)-3-(3-indolyl)propionamide]	2	500
O=C(NCCc1ccccc1)[C@H](Cc1c[nH]c2ccccc12)NC(=O)N1CCC2(CCc3ccccc32)CC1 [Example 19]	200	56
O=C(Nc1ccccc1)[C@H](Cc1c[nH]c2ccccc12)NC(=O)N1CCC2(CCc3ccccc32)CC1 [Example 14, N-Phenyl-2-(S)-((spiroindane-1,4'-piperidino)-carbonyl-amino)-3-(3-indolyl)propionamide]	> 1000	650
CN(Cc1ccccc1)C(=O)[C@H](COCc1ccccc1)NC(=O)N1CCC2(CC1)CN(S(C)(=O)=O)c1ccccc12 [Example 35, N-Benzyl-N-methyl-2-(S)-((1-methanesulfonyl-spiroindoline-1,4'-piperidino)-carbonyl-amino)-3-benzyloxypropionamide]	300	60
Cc1cc(C)cc(CN(C)C(=O)[C@H](Cc2c[nH]c3ccccc23)NC(=O)N2CCC3(CC2)CN(S(C)(=O)=O)c2ccccc23)c1 [Example 28, N-(3,5-Dimethylphenyl)methyl-N-methyl-2-(S)-((1-methanesulfonyl-spiroindoline-3,4'-piperidino)-carbonyl-amino)-3-(3-indolyl)propionamide]	3	> 300
CN(Cc1ccccc1)C(=O)[C@@H](Cc1c[nH]c2ccccc12)NC(=O)N1CCC2(C=Cc3ccccc32)CC1 [Example 31, N-Benzyl-N-methyl-2-(R)-((spiro-1H-indene-1,4'-piperidino)-carbonyl-amino)-3-(3-indolyl)propionamide]	600	130
CS(=O)(=O)N1CC2(CCN(C(=O)N[C@@H](Cc3c[nH]c4ccccc34)C(=O)NCc3ccccc3)CC2)c2ccccc21 [Example 2, N-Benzyl-2-(S)-((1-methanesulfonyl-spiroindoline-3,4'-piperidino)-carbonyl-amino)-3-(3-indolyl)propionamide]	70	40
CN(Cc1ccccc1)C(=O)[C@H](Cc1c[nH]c2ccccc12)NC(=O)N1CCN(Cc2ccccc2)CC1 [Example 10, N-Benzyl-N-methyl-2-(S)-((4-benzylpiperazino)-carbonyl-amino)-3-(3-indolyl)propionamide]	60	100

The remaining molecules from weak to strong by IC50 [1], led by results:

IC50 [1] [nM]	IC50 [2] [nM]	Compound
300	200	CN(Cc1ccccc1)C(=O)[C@H](Cc1ccccc1)NC(=O)N1CCC2(C=Cc3ccccc32)CC1 [Example 36, N-Benzyl-N-methyl-2-(S)-((spiroindine-1,4'-piperidino)-carbonyl-amino)-3-phenylpropionamide]
200	180	CN(Cc1ccccc1)C(=O)[C@@H](Cc1c[nH]c2ccccc12)NC(=O)N1CCC2(CC1)CN(S(C)(=O)=O)c1ccccc12 [Example 32, N-Benzyl-N-methyl-2-(R)-((1-methanesulfonyl-spiroindoline-3,4'-piperidino)-carbonyl-amino)-3-(3-indolyl)propionamide]
90	25	CN(Cc1ccccc1)C(=O)[C@H](Cc1c[nH]c2ccccc12)NC(=O)N1CCC(Cc2ccccc2)CC1 [Example 8, N-Benzyl-N-methyl-2-(S)-((4-benzylpiperidino)-carbonyl-amino)-3-(3-indolyl)propionamide]
80	16	C[C@H](NC(=O)[C@H](Cc1c[nH]c2ccccc12)NC(=O)N1CCC2(CCc3ccccc32)CC1)c1ccccc1 [Example 21, N-(1(S)-Phenylethyl)-2(S)-((spiroindane-1,4'-piperidino)-carbonyl-amino)-3-(3-indolyl)propionamide]
50	8	CN(Cc1ccccc1)C(=O)[C@H](Cc1c[nH]c2ccccc12)NC(=O)N1CCC2(CCc3ccccc32)CC1 [Example 4, N-Benzyl-N-methyl-2-(S)-((spiroindane-1,4'-piperidino)-carbonyl-amino)-3-(3-indolyl)propionamide]
30	15	Cc1ccccc1N1CCN(C(=O)N[C@@H](Cc2c[nH]c3ccccc23)C(=O)N(C)Cc2ccccc2)CC1 [Example 13, N-Benzyl-N-methyl-2-(S)-((4-(2-methylphenyl)piperazino)-carbonyl-amino)-3-(3-indolyl)propionamide]
20	25	COc1ccccc1N1CCN(C(=O)N[C@@H](Cc2c[nH]c3ccccc23)C(=O)N(C)Cc2ccccc2)CC1 [Example 12, N-Benzyl-N-methyl-2-(S)-((4-(2-methoxyphenyl)piperazino)-carbonyl-amino)-3-(3-indolyl)propionamide]
1	180	CN(Cc1cc(Cl)cc(Cl)c1)C(=O)[C@H](Cc1c[nH]c2ccccc12)NC(=O)N1CCC2(CC1)CN(S(C)(=O)=O)c1ccccc12 [Example 27, N-(3,5-Dichlorophenyl)methyl-N-methyl-2-(S)-((1-methanesulfonyl-spiroindoline-3,4'-piperidino)-carbonyl-amino)-3-(3-indolyl)propionamide]
